Assay results from ChEMBL document CHEMBL1201862, “PubChem BioAssay data set” (2004).
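A five-concentration, 48-hour dose response in 96-well plates underlies each endpoint, interpolated linearly between surrounding concentrations. At the GI50, growth is halved.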 The source made the active and inactive calls. No stated cut-off is given here; in the data, active = GI50 up to about 1.1 µM and inactive = higher.

How the values were obtained:
Test in all cases: NCI tumour cell line growth inhibition, 48 h
SF-295 = test system: SF-295
HCT-116 = test system: HCT-116
RXF 393 = test system: RXF 393
NCI-H23 = test system: NCI-H23
SW-620 = test system: SW-620
M14 = test system: M14
K562 = test system: K562
A498 = test system: A498
UO-31 = test system: UO-31
SK-MEL-5 = test system: SK-MEL-5
HCC 2998 = test system: HCC 2998
SK-OV-3 = test system: SK-OV-3
KM-20L2 = test system: KM-20L2
SNB-75 = test system: SNB-75
NCI-H226 = test system: NCI-H226
Malme-3M = test system: Malme-3M
HL-60 = test system: HL-60
A549 = test system: A549
SF-539 = test system: SF-539
LXFL 529 = test system: LXFL 529
NCI-H460 = test system: NCI-H460
HOP-18 = test system: HOP-18
HT-29 = test system: HT-29
SN12C = test system: SN12C
DMS-114 = test system: DMS-114
RXF 631 = test system: RXF 631
SK-MEL-2 = test system: SK-MEL-2
786-0 = test system: 786-0
HOP-62 = test system: HOP-62
COLO 205 = test system: COLO 205
LOX IMVI = test system: LOX IMVI
MOLT-4 = test system: MOLT-4
KM12 = test system: KM12
OVCAR-3 = test system: OVCAR-3
UACC-62 = test system: UACC-62
M19-MEL = test system: M19-MEL
ACHN = test system: ACHN
UACC-257 = test system: UACC-257
OVCAR-4 = test system: OVCAR-4
OVCAR-8 = test system: OVCAR-8
DMS-273 = test system: DMS-273
SF-268 = test system: SF-268
HCT-15 = test system: HCT-15
RPMI-8226 = test system: RPMI-8226
EKVX = test system: EKVX
DLD-1 = test system: DLD-1
SR = test system: SR
U-251 = test system: U-251
CAKI-1 = test system: CAKI-1
TK-10 = test system: TK-10
IGROV-1 = test system: IGROV-1
XF498 = test system: XF498
SNB-78 = test system: SNB-78
HOP-92 = test system: HOP-92
SK-MEL-28 = test system: SK-MEL-28
OVCAR-5 = test system: OVCAR-5
CCRF-CEM = test system: CCRF-CEM
NCI-H522 = test system: NCI-H522
SNB-19 = test system: SNB-19

Measured: GI50

COC(=O)C1CC(=O)O[C@H]1c1ccc(OC)c(OC)c1 (some centres not stated)
inactive: SF-295 > 100 µM | HCT-116 > 100 µM | RXF 393 > 100 µM | NCI-H23 > 100 µM | SW-620 > 100 µM | M14 > 100 µM | K562 > 100 µM | A498 > 100 µM | UO-31 > 100 µM | SK-MEL-5 > 100 µM | HCC 2998 > 100 µM | SK-OV-3 > 100 µM | KM-20L2 > 100 µM | SNB-75 > 100 µM | NCI-H226 > 100 µM | Malme-3M > 100 µM | HL-60 > 100 µM | A549 > 100 µM | SF-539 > 100 µM | LXFL 529 > 100 µM | NCI-H460 > 100 µM | HOP-18 > 100 µM | HT-29 > 100 µM | SN12C > 100 µM | DMS-114 > 100 µM | RXF 631 > 100 µM | SK-MEL-2 > 100 µM | 786-0 > 100 µM | HOP-62 > 100 µM | COLO 205 > 100 µM | LOX IMVI > 100 µM | MOLT-4 > 100 µM | KM12 > 100 µM | OVCAR-3 > 100 µM | UACC-62 > 100 µM | M19-MEL > 100 µM | ACHN > 100 µM | UACC-257 > 100 µM | OVCAR-4 > 100 µM | OVCAR-8 > 100 µM | DMS-273 > 100 µM | SF-268 > 100 µM | RPMI-8226 > 100 µM | EKVX > 100 µM | DLD-1 > 100 µM | SR > 100 µM | U-251 > 100 µM | CAKI-1 > 100 µM | TK-10 > 100 µM | IGROV-1 > 100 µM | XF498 > 100 µM | SNB-78 > 100 µM | HOP-92 > 100 µM | SK-MEL-28 > 100 µM | OVCAR-5 > 100 µM | CCRF-CEM > 100 µM
> 100 µM: HCT-15

OCC1C2C=CC(O2)[C@H]1CO (some centres not stated)
inactive: SF-295 > 100 µM | HCT-116 > 100 µM | RXF 393 42.4 µM | SW-620 > 100 µM | M14 > 100 µM | A498 > 100 µM | NCI-H522 > 100 µM | SNB-19 > 100 µM | UO-31 > 100 µM | SK-MEL-5 > 100 µM | HCC 2998 > 100 µM | SK-OV-3 > 100 µM | KM-20L2 > 100 µM | SNB-75 > 100 µM | NCI-H226 > 100 µM | Malme-3M > 100 µM | HL-60 > 100 µM | A549 > 100 µM | SF-539 > 100 µM | LXFL 529 > 100 µM | NCI-H460 > 100 µM | HOP-18 > 100 µM | HT-29 79.6 µM | SN12C > 100 µM | DMS-114 92.7 µM | RXF 631 > 100 µM | 786-0 > 100 µM | HOP-62 > 100 µM | COLO 205 > 100 µM | LOX IMVI > 100 µM | MOLT-4 > 100 µM | KM12 > 100 µM | OVCAR-3 > 100 µM | UACC-62 > 100 µM | M19-MEL > 100 µM | ACHN > 100 µM | UACC-257 > 100 µM | OVCAR-4 > 100 µM | OVCAR-8 > 100 µM | DMS-273 > 100 µM | SF-268 > 100 µM | RPMI-8226 > 100 µM | EKVX > 100 µM | DLD-1 > 100 µM | SR > 100 µM | U-251 > 100 µM | CAKI-1 > 100 µM | TK-10 > 100 µM | IGROV-1 > 100 µM | SNB-78 > 100 µM | HOP-92 > 100 µM | SK-MEL-28 > 100 µM | OVCAR-5 > 100 µM | CCRF-CEM 78.7 µM
> 100 µM: HCT-15
